Values quoted from earlier work, collected in US8648085B2, “1, 5-dihydro-pyrazolo (3, 4-D) pyrimidin-4-one derivatives and their use as PDE9A mudulators for the treatment of CNS disorders” (Boehringer Ingelheim International GmbH, priority 2007, dated 2014).

Legend:
[1] = molecular target: PDE9A (Homo sapiens, UniProt O76083); conditions: concentrations of up to 100 [mu]M; cited from earlier work
[2] = molecular target: T1, Murine PDE9A (Mus musculus, UniProt O70628); conditions: concentrations below 200 [mu]M; cited from earlier work
T1 sequence (O70628 1-534): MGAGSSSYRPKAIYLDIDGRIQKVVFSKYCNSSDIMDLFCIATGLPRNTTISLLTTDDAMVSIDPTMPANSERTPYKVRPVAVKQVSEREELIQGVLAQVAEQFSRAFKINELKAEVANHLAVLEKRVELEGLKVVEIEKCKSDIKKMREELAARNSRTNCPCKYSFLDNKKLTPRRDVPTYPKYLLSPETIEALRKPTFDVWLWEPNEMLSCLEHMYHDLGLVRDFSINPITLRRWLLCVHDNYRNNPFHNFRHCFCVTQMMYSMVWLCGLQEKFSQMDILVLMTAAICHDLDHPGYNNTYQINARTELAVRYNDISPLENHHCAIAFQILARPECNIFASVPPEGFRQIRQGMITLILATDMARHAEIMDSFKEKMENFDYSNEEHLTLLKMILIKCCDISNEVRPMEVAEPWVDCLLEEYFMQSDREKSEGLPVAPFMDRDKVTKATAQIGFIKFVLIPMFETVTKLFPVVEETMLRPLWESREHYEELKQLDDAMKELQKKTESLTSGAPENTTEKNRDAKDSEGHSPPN

PDE9A, sequence (O76083 whole entry): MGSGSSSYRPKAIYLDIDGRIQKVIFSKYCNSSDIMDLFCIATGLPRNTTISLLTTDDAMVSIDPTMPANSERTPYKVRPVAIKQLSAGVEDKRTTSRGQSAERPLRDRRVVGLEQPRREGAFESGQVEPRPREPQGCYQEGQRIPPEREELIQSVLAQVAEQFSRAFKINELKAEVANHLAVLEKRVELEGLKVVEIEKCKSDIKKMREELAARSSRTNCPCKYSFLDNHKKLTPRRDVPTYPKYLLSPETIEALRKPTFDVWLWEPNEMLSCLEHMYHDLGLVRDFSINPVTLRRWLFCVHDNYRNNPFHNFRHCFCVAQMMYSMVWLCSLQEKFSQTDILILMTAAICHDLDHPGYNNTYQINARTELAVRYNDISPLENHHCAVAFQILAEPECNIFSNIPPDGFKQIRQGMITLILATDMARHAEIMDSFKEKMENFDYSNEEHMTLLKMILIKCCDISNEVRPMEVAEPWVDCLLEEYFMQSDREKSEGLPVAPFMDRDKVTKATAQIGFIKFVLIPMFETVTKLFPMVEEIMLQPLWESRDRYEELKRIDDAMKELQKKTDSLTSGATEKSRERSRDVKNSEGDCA

Compound | inhibition on the isolated enzyme (human PDE9A) [1] | inhibition of murine PDE9A [2]
CCOC(=O)C1=C[C@]2(CC)CCCN3CCc4c(n1c1ccccc41)[C@@H]32 [vinpocetine] | no inhibition | 
CC(=O)Nc1ccc(-c2c[nH]c(=O)cn2)cc1 [SKF94120] | no inhibition | 
CC(C)Cn1c(=O)n(C)c(=O)c2[nH]cnc21 [IBMX] | no inhibition | not inhibited
COc1ccc(C2CNC(=O)C2)cc1OC1CCCC1 (centres unmarked) [rolipram] | no inhibition | 
